Structures can show the parent of a compound that is named as a salt. Where two headings read alike, the source gives them in different places.
Legend:
[1] = molecular target: muscarinic cholinergic receptor; experiment: [^3 H]-Cis-methyldioxolane (^3 H-CD) Binding Assay (High Affinity); conditions: rat cerebral cortex, ^3 H-CD 1.0 nM, 25° C., 120 minutes, pH 7.4; high affinity agonist binding
[2] = molecular target: muscarinic cholinergic receptor; assay type: binding, rat; conditions: rat cerebral cortex, ^3 H-QNB 0.25 nM, 25° C., 120 minutes, pH 7.4

Structure (SMILES) | Ki [1] [nM] | Ki [2] [nM]
O=C1[C@@H](O)CCN1CC#CCN1CCC[C@H]1CO [[S-(R*,R*)]-3-Hydroxy-1-[4-[2-(hydroxymethyl)-1-pyrrolidinyl]-2-butynyl]-2-pyrrolidinone] | 34300 | > 100000
CC(C)(C)[Si](C)(C)OC[C@@H]1CCCN1CC#CCN1CC[C@H](O)C1=O [[S-(R*,R*)]-1-[4-[2-[[[(1,1-Dimethylethyl)dimethylsilyl]-oxy]methyl]-1-pyrrolidinyl]-2-butynyl]-3-hydroxy-2-pyrrolidinone] | 140 | 400
CC(C)C(=O)O[C@@H]1CCN(CC#CC[N+](C)(C)C)C1=O [(R)-N,N, N-Trimethyl-4-[3-(2-methyl-1-oxopropoxy)-2-oxo-1-pyrrolidinyl]-2-butyn-1 aminium iodide] | 240 | 45000
CN(C)CC#CCN1CC[C@@H](N=[N+]=[N-])C1=O [(R)-3-Azido-1-[4-(dimethylamino)-2-butynyl]-2-pyrrolidinone] | 500 | > 100000
CN(C)CC#CCN1CC[C@@H](O)C1=O [(R)-1-[4-Dimethylamino)-2-butynyl-3-hydroxy-2-pyrrolidinone] | 540 | 105000
O=C1[C@H](O)CCN1CC#CCN1CCCC1 [(R)-3-Hydroxy-1-[4-(1-pyrrolidinyl)-2-butynyl]-2-pyrrolidinone] | 125 | 3400
CN(C)CC#CCN1CC[C@H](N)C1=O [(S)-3-Amino-1-[4-(dimethylamino)-2-butynyl]-2-pyrrolidinone dihydrochloride] | 2600 | > 100000
CCCCCCCCOC(=O)O[C@H]1CCN(CC#CC[N+](C)(C)C)C1=O [(S)-N,N, N-Trimethyl-4-[3-[[(octyloxy)carbonyl]oxy]-2-oxo-1-pyrrolidinyl]-2-butyn-1-aminium iodide] | 13 | 100
CN(C)CC#CCNC(=O)C(F)(F)F [N-[4-Dimethylamino)-2-butynyl]-2,2,2-trifluoroacetamide monomhydrochloride] | 6100 | > 100000
CC(=O)O[C@@H]1CCN(CC#CCN2CCC[C@H]2CO[Si](C)(C)C(C)(C)C)C1=O [[R-(R*,S*)]-3-(Acetoxy)-1-[4-[2-[[[(1,1-dimethylethyl)dimethylsilyl]oxy]methyl]-1-pyrrolidinyl]-2-butynyl]-1]-2-pyrrolidinone] | 1700 | 500000
CC(C)(C)[Si](C)(C)O[C@@H]1CCN(CC#CCN2CCC2)C1=O [(R)-1-[4-(1-Azetidinyl)-2-butynyl]-3-[[(1,1-dimethylethyl)dimethylsilyl]oxy]-2-pyrrolidinone] | > 100000 | > 100000
CC(C)C(=O)O[C@H]1CCN(CC#CCN2CCCC2)C1=O [(S)-2-Methylpropanoic acid 2-oxo-1-[4-(1-pyrrolidinyl)-2-butynyl]-3-pyrrolidinyl ester] | 162 | 7200
CC(C)(C)[Si](C)(C)O[C@@H]1CCN(CC#CCn2ccnc2)C1=O [(R)-3-[[(1,1-Dimethylethyl)-dimethylsilyl]oxy]-1-[4-(1H-imidazol-1-yl)-2-butynyl]-2-pyrrolidinone] | 14000 | > 100000
CN(C)CC#CCN1CC[C@@H](N)C1=O [(R)-3-Amino-1-[4-(dimethylamino)-2-butynyl]-2-pyrrolidinone dihydrochloride] | 890 | > 100000
CC1CCN(CC#CCN(C)C)C1=O (racemic) [Racemic 1-[4-(1-Dimethylamino)-2-butynyl]-3-methyl-2-pyrrolidinone] | 410 | 21000
CC(C)(C)[Si](C)(C)O[C@H]1CCN(CC#CCn2ccnc2)C1=O [(S)-3-[[(1,1-Dimethylethyl)dimethylsilyl]oxy]-1-[4-(1H-imidazol-1-yl)-2-butynyl]-2-pyrrolidinone] | 24300 | > 100000
CCCCCCCCOC(=O)O[C@@H]1CCN(CC#CCN2CCCC2)C1=O [(R)-Carbonic acid octyl 2-oxo-1-[4-(1-pyrrolidinyl)-2-butynyl]-3-pyrrolidinyl ester] | 76 | 100
COC(=O)O[C@H]1CCN(CC#CCN(C)C)C1=O [(S)-Carbonic acid 1-[4-(dimethylamino)-2-butynyl]-2-oxo-3-pyrrolidinyl methyl ester] | 2160 | 15100
CC1CCN(CC#CCn2ccnc2)C1=O (racemic) [Racemic 1-[4-(1H-imidazol-1-yl)-2-butynyl]-3-methyl-2-pyrrolidinone] | 57 | 6700
CCCCCCCCNC(=O)O[C@@H]1CCN(CC#CC[N+](C)(C)C)C1=O [(R)-N,N, N-Trimethyl-4-[3-[[(octylamino)carbonyl]oxy]-2-oxo-1-pyrrolidinyl]-2-butyn-1-aminium iodide] | 490 | 500
CC(C)(C)[Si](C)(C)OC[C@H]1CCCN1CC#CCN1CC[C@H](O)C1=O [[S-(R*,S*)]-1-[4-[2-[[[(1,1-Dimethylethyl)dimethylsilyl]-oxy]methyl]-1-pyrrolidinyl]-2-butynyl]-3-hydroxy-2-pyrrolidinone] | 1700 | 198000

Structure (SMILES) | Ki [1] [nM] | Ki [2] [nM]
CCN(CC)CC#CCN [N,N-Diethyl-2-butyne-1,4-diamine dihydrochloride] | > 100000 | > 100000
CCCCCCCCCC(=O)O[C@@H]1CCN(CC#CCN(C)C)C1=O [(R)-Decanoic acid 1-[4-(dimethylamino)-2-butynyl]-2-oxo-3-pyrrolidinyl ester] | 730 | > 100000
CN(C)CC#CCN [N,N-Dimethyl-2-butyne-1,4-diamine dihydrochloride] | 20500 | > 100000
N[C@H]1CCN(CC#CCN2CCCC2)C1=O [(S)-3-Amino-1-[4-(1-pyrrolidinyl)-2-butynyl]-2-pyrrolidinone dihydrochloride] | 410 | 73600
CC1CCN(CC#CCN2CCC(O[Si](C)(C)C(C)(C)C)C2)C1=O (stereo not drawn) [[R-(R*,R* and R*,S*)]-1-[4-[3[[(1,1-dimethylethyl)-dimethylsilyl]oxy]-1-pyrrolidinyl-2-butynyl]-3-methyl-2-pyrrolidinone] | > 100000 | > 100000
CC(C)C(=O)O[C@@H]1CCN(CC#CCN2CCCC2)C1=O [(R)-2-Methylpropanoic acid 2-oxo-1-[4-(1-pyrrolidinyl)-2-butynyl]-3-pyrrolidinyl ester] | 135 | 87000
CC(C)(C)C(=O)O[C@H]1CCN(CC#CCN2CCCC2)C1=O [(S)-2,2-Dimethylpropanoic acid 2-oxo-1-[4-(1-pyrrolidinyl)-2-butynyl]-3-pyrrolidinyl ester] | 370 | 4600
CCCCCCCCCC(=O)O[C@@H]1CCN(CC#CCN2CCCC2)C1=O [(R)-Decanoic acid 2-oxo-1-[4-(1-pyrrolidinyl)-2-butynyl]-3-pyrrolidinyl ester] | 97 | 200
[N-]=[N+]=N[C@@H]1CCN(CC#CCN2CCCC2)C1=O [(R)-3-Azido-1-[4-(1-pyrrolidinyl)-2-butynyl]-2-pyrrolidinone] | 210 | 28000
CN(C)CC#CCN1CC[C@H](N=[N+]=[N-])C1=O [(S)-3-Azido-1-[4-(dimethylamino)-2-butynyl]-2-pyrrolidinone] | 630 | > 100000
CC1CCN(CC#CCN2CCC2)C1=O (racemic) [Racemic 1-[4-(1-azetidinyl)-2-butynyl-3-methyl-2-pyrrolidinone, Racemic 1-[4-(1-azetidinyl)-2-butynyl]-3-methyl-2-pyrrolidinone] | 54 | 2000
CCN(CC)CC#CCNC(=O)C(F)(F)F [N-[4-(Diethylamino)-2-butynyl]-2,2,2-trifluoroacetamide monohydrochloride] | 4070 | > 100000
C[N+](C)(C)CC#CCN1CC[C@@H](N=[N+]=[N-])C1=O [(R)-4-(3-Azido-2-oxo-1-pyrrolidinyl)-N,N,N-trimethyl-2-butyn-1-aminium iodide] | 39 | 800
CN(CC#CCN1CC[C@@H](O)C1=O)CCCCO [(R)-3-Hydroxy-1-[4-[(4-hydroxybutyl)methylamino]-2-butynyl]-2-pyrrolidinone] | 1450 | > 100000
CCCCCCCCOC(=O)O[C@@H]1CCN(CC#CC[N+](C)(C)C)C1=O [(R)-N,N, N-Trimethyl-4-[3-[[(octyloxy)carbonyl]oxy]-2-oxo-1-pyrrolidinyl]-2-butyn-1-aminium iodide] | 10 | 200
CC(C)(C)C(=O)O[C@@H]1CCN(CC#CC[N+](C)(C)C)C1=O [(R)-3-[3-(2,2-Dimethyl-1-oxopropoxy)-2-oxo-1-pyrrolidinyl]-N,N, N-trimethyl-2-butyn-1-aminium iodide] | 1220 | > 100000
CCCCCCOC(=O)O[C@H]1CCN(CC#CCN2CCCC2)C1=O [(S)-Carbonic acid hexyl 2-oxo-1-[4-(1-pyrrolidinyl)-2-butynyl]-3-pyrrolidinyl ester] | 15 | 1700
CN(CC#CCN1CC[C@H](O)C1=O)CCO [(S)-3-Hydroxy-1-[4-[(2-hydroxyethyl)methylamino]-2-butynyl]-2-pyrrolidinone] | 1820 | > 100000
CC1(O)CCN(CC#CCN2CCCC2)C1=O (racemic) [Racemic-3-Hydroxy-3-methyl-1-[4-(1-pyrrolidinyl)-2-butynyl]-2-pyrrolidinone, Racemic 3-hydroxy-3-methyl-1-[4-(1-pyrrolidinyl) 2-butynyl]-2-pyrrolidinone] | 5700 | 8600
COC(=O)O[C@H]1CC(=O)N(CC#CCN2CCCC2)C1 [(S)-Carbonic acid methyl 2-oxo-1-[4-(1-pyrrolidinyl)-2-butynyl]-4-pyrrolidinyl ester] | 850 | 1800
CCCCCCCCNC(=O)O[C@@H]1CCN(CC#CCN2CCCC2)C1=O [(R)-Octylcarbamic acid 2-oxo-1-[4-(1-pyrrolidinyl)-2-butynyl]-3-pyrrolidinyl ester] | 240 | 200

Source: US5637731A (priority 1996, dated 1997)
